Here are results for 24 molecules from patent publication US20220396569A1 (Carmot Therapeutics, Inc., priority 2021, published 2022).

The term EC50 denotes the midpoint of the concentration-response curve.

SMILES strings stand for the structures.

The target in the first experiment is T1, human GLP-1 receptor (Homo sapiens, UniProt P43220).
T1 construct: expressed in transfected cells
T1 sequence (P43220 24-463): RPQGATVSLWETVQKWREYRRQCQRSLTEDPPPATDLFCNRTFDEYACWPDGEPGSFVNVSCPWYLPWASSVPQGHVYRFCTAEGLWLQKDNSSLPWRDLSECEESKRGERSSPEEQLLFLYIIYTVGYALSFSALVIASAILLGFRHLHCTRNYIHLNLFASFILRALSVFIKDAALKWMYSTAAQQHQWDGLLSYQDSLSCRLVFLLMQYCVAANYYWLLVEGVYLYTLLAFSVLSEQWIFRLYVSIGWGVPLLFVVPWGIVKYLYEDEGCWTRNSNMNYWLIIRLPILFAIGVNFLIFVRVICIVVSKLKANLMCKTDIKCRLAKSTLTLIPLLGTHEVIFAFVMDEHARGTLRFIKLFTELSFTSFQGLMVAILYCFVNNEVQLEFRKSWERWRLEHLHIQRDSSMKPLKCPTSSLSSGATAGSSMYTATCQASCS
Nature of the experiment: GLP-1R cAMP Assay (HitHunter cAMP accumulation). It is filed as cell-based. The settings on record: EC50, cAMP accumulation, CHO cells stably overexpressing human GLP-1 receptor, 30 min treatment. How it is done:
cAMP accumulation was measured in Chinese hamster ovary (CHO) cells stably overexpressing the human GLP-1 receptor using the HitHunter cAMP Assay for Small Molecules Kit (Eurofins). Briefly, cells were grown in Ham's F12 Nutrient Mix with 10% FBS, and lifted with Cell Dissociation Buffer, Enzyme free, PBS based (ThermoFisher). Cells were pelleted, and resuspended in Hank's buffered saline solution with 10 mM HEPES, and 625 μM 3-isobutyl-1-methylxanthine. The anti-cAMP antibody reagent was then added to cells at a 1:2 ratio and 5 μL of mixture was seeded in 384-well small volume white assay plates, at 10,000 cells/well. Cells were then treated with 50 nL compound using an ECHO 550 acoustic dispenser (Labcyte) in a 20-point dose response format in triplicate for 30 min. Cells were then lysed, and detection reagents added according to the manufacturer's protocol. After overnight incubation, luminescence was measured using a Perkin Elmer Envision plate reader. Dose response curves were analyzed using GraphPad Prism 9.0. […]
On the technique in general: cAMP levels reflect the balance of adenylyl cyclase and phosphodiesterase activity.
In turn, `O=C(O)c1cc(F)c2nc(CN3CC[C@H](Oc4ccnc(COc5ccc(Cl)cc5F)n4)C3)n(CC3CCO3)c2c1` (stereo partly drawn) [Compound 361, 2-{[(3S)-3-({2-[(4-chloro-2-fluorophenoxy)methyl]pyrimidin-4-yl}oxy)pyrrolidin-1-yl]methyl}-4-fluoro-1-[(oxetan-2-yl)methyl]-1H-1,3-benzodiazole-6-carboxylic acid] had an EC50 of less than 50 nM.

The same experiment, now with this note: cAMP accumulation, CHO cells stably overexpressing human GLP-1 receptor, 30 min treatment; read-out: EC50.
Regarding `CCn1cncc1Cn1c(CN2CC(Oc3cccc(COc4ccc(Cl)cc4C#N)c3)C2)nc2ccc(C(=O)O)cc21` [Compound 212, 2-[(3-{3-[(4-chloro-2-cyanophenoxy)methyl]phenoxy}azetidin-1-yl)methyl]-1-[(1-ethyl-1H-imidazol-5-yl)methyl]-1H-1,3-benzodiazole-6-carboxylic acid], the EC50 was less than 50 nM.

On to `CCn1cncc1Cn1c(CN2CC(Oc3ccnc(COc4ccc(Cl)cc4Cl)c3)C2)nc2ccc(C(=O)O)cc21` [Compound 218, 2-{[3-({2-[(2,4-dichlorophenoxy)methyl]pyridin-4-yl}oxy)azetidin-1-yl]methyl}-1-[(1-ethyl-1H-imidazol-5-yl)methyl]-1H-1,3-benzodiazole-6-carboxylic acid], for which the concentration for a half-maximal effect (EC50) was less than 50 nM.

Regarding `CCn1cncc1Cn1c(CN2CC(=Cc3cnc(COc4ccc(Cl)cc4C#N)o3)C2)nc2ccc(C(=O)O)cc21` [Compound 225, 2-{[3-({2-[(4-chloro-2-cyanophenoxy)methyl]-1,3-oxazol-5-yl}methylidene)azetidin-1-yl]methyl}-1-[(1-ethyl-1H-imidazol-5-yl)methyl]-1H-1,3-benzodiazole-6-carboxylic acid], the EC50 is less than 50 nM.

With `CCn1cncc1Cn1c(CN2CC(=Cc3ccnc(COc4ccc(Cl)cc4C#N)c3)C2)nc2ccc(C(=O)O)cc21` [Compound 226, 2-{[3-({2-[(4-chloro-2-cyanophenoxy)methyl]pyridin-4-yl}methylidene)azetidin-1-yl]methyl}-1-[(1-ethyl-1H-imidazol-5-yl)methyl]-1H-1,3-benzodiazole-6-carboxylic acid], the 50% effective concentration (EC50) is less than 50 nM.

As to `O=C(O)c1ccc2nc(CN3CC(Oc4cccc(COc5ccc(Cl)cc5Cl)c4)C3)n(Cc3ncco3)c2c1` [Compound 228, 2-[(3-{3-[(2,4-dichlorophenoxy)methyl]phenoxy}azetidin-1-yl)methyl]-1-[(1,3-oxazol-2-yl)methyl]-1H-1,3-benzodiazole-6-carboxylic acid], the EC50 was less than 50 nM.

Turning to `N#Cc1cc(Cl)ccc1OCc1cccc(OC2CN(Cc3nc4ccc(C(=O)O)cc4n3Cc3ncco3)C2)c1` [Compound 229, 2-[(3-{3-[(4-chloro-2-cyanophenoxy)methyl]phenoxy}azetidin-1-yl)methyl]-1-[(1,3-oxazol-2-yl)methyl]-1H-1,3-benzodiazole-6-carboxylic acid], the EC50 is less than 50 nM.

Turning to `CCn1cncc1Cn1c(CN2C[C@@H](Oc3cccc(COc4ccc(Cl)cc4Cl)c3)[C@@H]2C)nc2ccc(C(=O)O)cc21` [Compound 234, 2-{[(2S,3R)-3-{3-[(2,4-dichlorophenoxy)methyl]phenoxy}-2-methylazetidin-1-yl]methyl}-1-[(1-ethyl-1H-imidazol-5-yl)methyl]-1H-1,3-benzodiazole-6-carboxylic acid], the EC50 was less than 50 nM.

For `CCn1cncc1Cn1c(CN2CC3(CC(Oc4cccc(COc5ccc(Cl)cc5Cl)c4)C3)C2)nc2ccc(C(=O)O)cc21` [Compound 235, 2-[(6-{3-[(2,4-dichlorophenoxy)methyl]phenoxy}-2-azaspiro[3.3]heptan-2-yl)methyl]-1-[(1-ethyl-1H-imidazol-5-yl)methyl]-1H-1,3-benzodiazole-6-carboxylic acid], the concentration giving a half-maximal response (EC50) fell in the range of 50 to 500 nM.

As to `O=C(O)c1ccc2nc(CN3CC(Oc4ccnc(COc5ccc(Cl)cc5Cl)c4)C3)n(Cc3ccno3)c2c1` [Compound 236, 2-{[3-({2-[(2,4-dichlorophenoxy)methyl]pyridin-4-yl}oxy)azetidin-1-yl]methyl}-1-[(1,2-oxazol-5-yl)methyl]-1H-1,3-benzodiazole-6-carboxylic acid], the EC50 is less than 50 nM.

With `O=C(O)c1ccc2nc(CN3CC(Oc4cccc(COc5ccc(Cl)cc5Cl)c4)C3)n(Cc3ccno3)c2c1` [Compound 237, 2-[(3-{3-[(2,4-dichlorophenoxy)methyl]phenoxy}azetidin-1-yl)methyl]-1-[(1,2-oxazol-5-yl)methyl]-1H-1,3-benzodiazole-6-carboxylic acid], the EC50 was less than 50 nM.

For `O=C(O)c1ccc2nc(CN3CC(Oc4cccc(COc5ccc(Cl)cc5Cl)c4)C3)n(Cc3cnco3)c2c1` [Compound 238, 2-[(3-{3-[(2,4-dichlorophenoxy)methyl]phenoxy}azetidin-1-yl)methyl]-1-[(1,3-oxazol-5-yl)methyl]-1H-1,3-benzodiazole-6-carboxylic acid], the half-maximal effective concentration (EC50) was less than 50 nM.

With `CCn1cncc1Cn1c(CN2CC[C@@H](Oc3ccnc(COc4ccc(Cl)cc4Cl)c3)C2)nc2ccc(C(=O)O)cc21` [Compound 245, 2-{[(3R)-3-({2-[(2,4-dichlorophenoxy)methyl]pyridin-4-yl}oxy)pyrrolidin-1-yl]methyl}-1-[(1-ethyl-1H-imidazol-5-yl)methyl]-1H-1,3-benzodiazole-6-carboxylic acid], the EC50 is less than 50 nM.

Regarding `CCn1cncc1Cn1c(CN2C[C@H](Oc3ccnc(COc4ccc(Cl)cc4Cl)c3)[C@@H]2C)nc2ccc(C(=O)O)cc21` [Compound 273, 2-{[(2S,3S)-3-({2-[(2,4-dichlorophenoxy)methyl]pyridin-4-yl}oxy)-2-methylazetidin-1-yl]methyl}-1-[(1-ethyl-1H-imidazol-5-yl)methyl]-1H-1,3-benzodiazole-6-carboxylic acid], the EC50 is less than 50 nM.

In the case of `CCn1cncc1Cn1c(CN2CCC(Cn3ccc(COc4ccc(Cl)cc4C#N)n3)CC2)nc2ccc(C(=O)O)cc21` [Compound 282, 2-{[4-({3-[(4-chloro-2-cyanophenoxy)methyl]-1H-pyrazol-1-yl}methyl)piperidin-1-yl]methyl}-1-[(1-ethyl-1H-imidazol-5-yl)methyl]-1H-1,3-benzodiazole-6-carboxylic acid], the concentration for a half-maximal effect (EC50) is less than 50 nM.

On to `CCn1cncc1Cn1c(CN2C[C@@H](Oc3ccnc(COc4ccc(Cl)cc4Cl)c3)[C@@H]2C)nc2ccc(C(=O)O)cc21` [Compound 293, 2-{[(2S,3R)-3-({2-[(2,4-dichlorophenoxy)methyl]pyridin-4-yl}oxy)-2-methylazetidin-1-yl]methyl}-1-[(1-ethyl-1H-imidazol-5-yl)methyl]-1H-1,3-benzodiazole-6-carboxylic acid], for which the concentration giving a half-maximal response (EC50) is less than 50 nM.

`O=C(O)c1ccc2nc(CN3CC[C@H](Oc4ccnc(COc5ccc(C(F)F)cc5F)c4)C3)n(C[C@@H]3CCO3)c2c1` [Compound 298, 2-{[(3S)-3-[(2-{[4-(difluoromethyl)-2-fluorophenoxy]methyl}pyridin-4-yl)oxy]pyrrolidin-1-yl]methyl}-1-{[(2S)-oxetan-2-yl]methyl}-1H-1,3-benzodiazole-6-carboxylic acid]: the EC50 was less than 50 nM.

For the molecule `N#Cc1ccc(OCc2cccc(O[C@H]3CCN(Cc4nc5ccc(C(=O)O)cc5n4C[C@@H]4CCO4)C3)c2)c(F)c1` [Compound 350, 2-{[(3S)-3-{3-[(4-cyano-2-fluorophenoxy)methyl]phenoxy}pyrrolidin-1-yl]methyl}-1-{[(2S)-oxetan-2-yl]methyl}-1H-1,3-benzodiazole-6-carboxylic acid], the concentration for a half-maximal effect (EC50) is less than 50 nM.

As to `O=C(O)c1cc(F)c2nc(CN3CC[C@H](Oc4cccc(COc5ccc(Cl)cc5F)c4)C3)n(C[C@@H]3CCO3)c2c1` [Compound 351, 2-{[(3S)-3-{3-[(4-chloro-2-fluorophenoxy)methyl]phenoxy}pyrrolidin-1-yl]methyl}-4-fluoro-1-{[(2S)-oxetan-2-yl]methyl}-1H-1,3-benzodiazole-6-carboxylic acid], the EC50 is less than 50 nM.

On to `CCn1cncc1Cn1c(CN2CC=C(c3cccc(COc4ccc(Cl)cc4Cl)n3)C2)nc2ccc(C(=O)O)cc21` [Compound 385, 2-[(3-{6-[(2,4-dichlorophenoxy)methyl]pyridin-2-yl}-2,5-dihydro-1H-pyrrol-1-yl)methyl]-1-[(1-ethyl-1H-imidazol-5-yl)methyl]-1H-1,3-benzodiazole-6-carboxylic acid], for which the EC50 was less than 50 nM.

Take `O=C(O)c1ccc2nc(CN3CC=C(c4ccc(F)c(COc5ccc(Cl)cc5Cl)c4)C3)n(Cc3cnco3)c2c1` [Compound 387, 2-[(3-{3-[(2,4-dichlorophenoxy)methyl]-4-fluorophenyl}-2,5-dihydro-1H-pyrrol-1-yl)methyl]-1-[(1,3-oxazol-5-yl)methyl]-1H-1,3-benzodiazole-6-carboxylic acid]: the EC50 is less than 50 nM.

`O=C(O)c1ccc2nc(CN3CC=C(c4ccc(F)c(COc5ccc(Cl)cc5Cl)c4)C3)n(C[C@@H]3CCO3)c2c1` [Compound 388, 2-[(3-{3-[(2,4-dichlorophenoxy)methyl]-4-fluorophenyl}-2,5-dihydro-1H-pyrrol-1-yl)methyl]-1-{[(2S)-oxetan-2-yl]methyl}-1H-1,3-benzodiazole-6-carboxylic acid]: the EC50 was less than 50 nM.

With `O=C(O)c1ccc2nc(CN3CCC(c4ccc(F)c(COc5ccc(Cl)cc5Cl)c4)C3)n(C[C@@H]3CCO3)c2c1` (stereo partly drawn) [Compound 389, 2-[(3-{3-[(2,4-dichlorophenoxy)methyl]-4-fluorophenyl}pyrrolidin-1-yl)methyl]-1-{[(2S)-oxetan-2-yl]methyl}-1H-1,3-benzodiazole-6-carboxylic acid], the EC50 is less than 50 nM.

In the case of `O=C(O)c1ccc2nc(CN3CCC(c4cc(COc5ccc(Cl)cc5Cl)ccn4)C3)n(C[C@@H]3CCO3)c2c1` (stereo partly drawn) [Compound 391], the EC50 was less than 50 nM.
